According to ChEMBL document CHEMBL1201862, “PubChem BioAssay data set” (2004):
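Dose response: 5 concentrations. Exposure: 48 h. Format: 96-well plates. Endpoint: linear interpolation; highest concentration if not reached. GI50: concentration for 50% inhibition of growth.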 Activity calls are given as the source filed them. Rule as the data show it: active = GI50 up to about 1.1 µM and inactive = higher.

How the values were obtained:
Assay in all cases: growth of human tumour cells (NCI), 48 h
BT-549 = tested on: BT-549
SNB-75 = tested on: SNB-75
NCI-H460 = tested on: NCI-H460
HCT-116 = tested on: HCT-116
OVCAR-5 = tested on: OVCAR-5
UO-31 = tested on: UO-31
DU-145 = tested on: DU-145
KM12 = tested on: KM12
NCI-H23 = tested on: NCI-H23
786-0 = tested on: 786-0
HOP-62 = tested on: HOP-62
HT-29 = tested on: HT-29
MDA-MB-231 = tested on: MDA-MB-231
MDA-MB-435 = tested on: MDA-MB-435
SR = tested on: SR
CCRF-CEM = tested on: CCRF-CEM
SK-OV-3 = tested on: SK-OV-3
SK-MEL-28 = tested on: SK-MEL-28
K562 = tested on: K562
PC-3 = tested on: PC-3
HCC 2998 = tested on: HCC 2998
SN12C = tested on: SN12C
M14 = tested on: M14
Hs-578T = tested on: Hs-578T
NCI-H226 = tested on: NCI-H226
OVCAR-4 = tested on: OVCAR-4
U-251 = tested on: U-251
Malme-3M = tested on: Malme-3M
HOP-92 = tested on: HOP-92
SF-268 = tested on: SF-268
A498 = tested on: A498
EKVX = tested on: EKVX
COLO 205 = tested on: COLO 205
OVCAR-8 = tested on: OVCAR-8
SNB-19 = tested on: SNB-19
CAKI-1 = tested on: CAKI-1
SF-295 = tested on: SF-295
SW-620 = tested on: SW-620
RXF 393 = tested on: RXF 393
UACC-62 = tested on: UACC-62
A549 = tested on: A549
SK-MEL-5 = tested on: SK-MEL-5
UACC-257 = tested on: UACC-257
OVCAR-3 = tested on: OVCAR-3
IGROV-1 = tested on: IGROV-1
RPMI-8226 = tested on: RPMI-8226
NCI-H522 = tested on: NCI-H522
HCT-15 = tested on: HCT-15
HL-60 = tested on: HL-60
SF-539 = tested on: SF-539
TK-10 = tested on: TK-10
T47D = tested on: T47D
MOLT-4 = tested on: MOLT-4
ACHN = tested on: ACHN
NCI/ADR-RES = tested on: NCI/ADR-RES
LOX IMVI = tested on: LOX IMVI
MCF7 = tested on: MCF7
MDA-N = tested on: MDA-N
SK-MEL-2 = tested on: SK-MEL-2

Q: With `C=CCSS/C=C/C[S+]([O-])CC=C` (centres undefined) [AJOENE] as the molecule, how does the GI50 (BT-549) read?
A: 25.6 µM (inactive)

Q: What about the GI50 (SNB-75) of the same molecule?
A: 70 µM (inactive)

Q: What about the GI50 (NCI-H460) of the same molecule?
A: 35.8 µM (inactive)

Q: And the GI50 (HCT-116)?
A: 13.1 µM (inactive)

Q: What about the GI50 (OVCAR-5) of the same molecule?
A: 36.6 µM (inactive)

Q: What about the GI50 (UO-31) of the same molecule?
A: 37.8 µM (inactive)

Q: And the GI50 (DU-145)?
A: 68.2 µM (inactive)

Q: What about the GI50 (KM12) of the same molecule?
A: 57.8 µM (inactive)

Q: And the GI50 (NCI-H23)?
A: 46.6 µM (inactive)

Q: And the GI50 (786-0)?
A: 18.3 µM (inactive)

Q: And the GI50 (HOP-62)?
A: > 100 µM (inactive)

Q: What about the GI50 (HT-29) of the same molecule?
A: 29.9 µM (inactive)

Q: What about the GI50 (MDA-MB-231) of the same molecule?
A: 25.2 µM (inactive)

Q: And the GI50 (MDA-MB-435)?
A: 18.2 µM (inactive)

Q: What about the GI50 (SR) of the same molecule?
A: 12.4 µM (inactive)

Q: And the GI50 (CCRF-CEM)?
A: 3.44 µM (inactive)

Q: What about the GI50 (SK-OV-3) of the same molecule?
A: 64 µM (inactive)

Q: And the GI50 (SK-MEL-28)?
A: 20.7 µM (inactive)

Q: What about the GI50 (K562) of the same molecule?
A: 5.83 µM (inactive)

Q: What about the GI50 (PC-3) of the same molecule?
A: 39.1 µM (inactive)

Q: And the GI50 (HCC 2998)?
A: 63.1 µM (inactive)

Q: What about the GI50 (SN12C) of the same molecule?
A: 26 µM (inactive)

Q: And the GI50 (M14)?
A: 20.9 µM (inactive)

Q: What about the GI50 (Hs-578T) of the same molecule?
A: 26.4 µM (inactive)

Q: What about the GI50 (NCI-H226) of the same molecule?
A: 41.3 µM (inactive)

Q: And the GI50 (OVCAR-4)?
A: > 54.8 µM (inactive)

Q: And the GI50 (U-251)?
A: 60 µM (inactive)

Q: And the GI50 (Malme-3M)?
A: 49.2 µM (inactive)

Q: What about the GI50 (HOP-92) of the same molecule?
A: 48.3 µM (inactive)

Q: And the GI50 (SF-268)?
A: 25 µM (inactive)

Q: What about the GI50 (A498) of the same molecule?
A: > 100 µM (inactive)

Q: And the GI50 (EKVX)?
A: > 100 µM (inactive)

Q: What about the GI50 (COLO 205) of the same molecule?
A: 24.7 µM (inactive)

Q: What about the GI50 (OVCAR-8) of the same molecule?
A: 18.5 µM (inactive)

Q: What about the GI50 (SNB-19) of the same molecule?
A: > 100 µM (inactive)

Q: What about the GI50 (CAKI-1) of the same molecule?
A: 26.9 µM (inactive)

Q: And the GI50 (SF-295)?
A: 58.7 µM (inactive)

Q: And the GI50 (SW-620)?
A: 7.8 µM (inactive)

Q: What about the GI50 (RXF 393) of the same molecule?
A: 24.9 µM (inactive)

Q: And the GI50 (UACC-62)?
A: 36.3 µM (inactive)

Q: What about the GI50 (A549) of the same molecule?
A: 61 µM (inactive)

Q: And the GI50 (SK-MEL-5)?
A: 36.6 µM (inactive)

Q: And the GI50 (UACC-257)?
A: 50.9 µM (inactive)

Q: What about the GI50 (OVCAR-3) of the same molecule?
A: 37.1 µM (inactive)

Q: What about the GI50 (IGROV-1) of the same molecule?
A: 43.4 µM (inactive)

Q: And the GI50 (RPMI-8226)?
A: 10.4 µM (inactive)

Q: And the GI50 (NCI-H522)?
A: 16.7 µM (inactive)

Q: What about the GI50 (HCT-15) of the same molecule?
A: 35.5 µM

Q: And the GI50 (HL-60)?
A: 5.05 µM (inactive)

Q: And the GI50 (SF-539)?
A: 25 µM (inactive)

Q: And the GI50 (TK-10)?
A: > 85.7 µM (inactive)

Q: What about the GI50 (T47D) of the same molecule?
A: > 56.1 µM (inactive)

Q: And the GI50 (MOLT-4)?
A: 3.95 µM (inactive)

Q: What about the GI50 (ACHN) of the same molecule?
A: 51.1 µM (inactive)

Q: What about the GI50 (NCI/ADR-RES) of the same molecule?
A: 26.2 µM (inactive)

Q: What about the GI50 (LOX IMVI) of the same molecule?
A: 14.6 µM (inactive)

Q: What about the GI50 (MCF7) of the same molecule?
A: 44.2 µM (inactive)

Q: And the GI50 (MDA-N)?
A: 18.8 µM (inactive)

Q: What about the GI50 (SK-MEL-2) of the same molecule?
A: > 52.2 µM (inactive)
